Data reported in paper PMC5823406, “Vehicle development, pharmacokinetics and toxicity of the anti-invasive agent 4-fluoro-3’,4’,5’-trimethoxychalcone in rodents” (PLoS ONE, 2018).
Values joined by “and” are separate entries in the source; they are usually repeats but may differ in a detail not shown here. Equal values may be shown once. Read-outs that look alike come from different tables or passages of the source.

Assay: Whole-blood PK study (IV, IP and PO) in male CD-1 mice
Assay type: in vivo, mouse
Settings: for Vd: read-out: Vss; for Tmax: CD-1, whole blood
Description: Nine male CD-1 mice (25–35 g) were obtained from Hilltop Labs. Duration of acclimation was at least two days. Animals were randomly assigned to the three dose groups (IV, PO, intraperitoneal (IP), N = 3 per group), healthy at the start of the trial, housed one per cage (conventional type with wood chip bedding material), identified by a cage label and maintained in a well-controlled temperature (20–24 C) and humidity (30%-70%) environment with 12 h light/dark cycles. Animals intended for IV dosing were fitted with a jugular vein cannula (JVC, procedure see rat plasma PK study above). The study was not blinded. Food was withheld from the animals for a minimum of 12 h prior to test article administration until 4 h post-dose. Water was offered ad libitum.
C16 was dosed in cassette together with two undisclosed compounds of similar chemical structure. The dose of each test article was 1 mg/kg (IV, JVC, 0.5 mg/mL) or 10 mg/kg (IP and PO gavage, 2 mg/mL). Two respective dosing solutions were prepared (protocol see above) containing 0.5 and 2 mg/mL of C16 (and equal concentrations of the other two test articles) in 20% DMSO / 10% (DMSO / Cremophor EL 1:1) / 70% H2O. Formulations were prepared one day prior to dosing and stored at 4 °C.
Blood samples were taken pre-dose and 5 (except for PO administration), 15, 30 min, 1, 2, 4, and 8 h after dosing. The samples were collected via the tail vein or by cardiac puncture (8 h time point). Blood (25 μL) was collected and pipetted into a tube with 25 μL heparinized water (1 μL of sodium heparin (1000 unit/ml) + 24 μL water) within 30 seconds of collection. The sample was pipetted up and down five times, immediately frozen on dry ice and stored at -60°C to -80°C until analyzed. No necropsy was performed.
Pharmacokinetic parameters were estimated by a non-compartmental model using WinNonlin (v5.2.1 or higher) software. The maximum plasma/blood concentrations (c0) after IV dosing were estimated by extrapolation of the first two time points back to t = 0. The maximum blood concentration (cmax) and the time to reach maximum blood drug concentration (tmax) after PO dosing were derived from the data. The area under the time-concentration curve (AUC) was calculated using the linear trapezoidal rule with calculation to the last quantifiable data point, and with extrapolation to infinity if applicable. Plasma/blood half-life (t1/2) was calculated from 0.693/slope of the terminal elimination phase. Mean residence time (MRT) was calculated by dividing the area under the moment curve (AUMC) by the AUC. Clearance (CL) was calculated from dose/AUC. Steady-state volume of distribution (Vss) was calculated from CL*MRT. Bioavailability was determined by dividing the individual dose-normalized PO AUC values by the respective average dose-normalized intravenous (IV) AUC value. Samples that were below the limit of quantification were not used in the calculation of averages, and were treated as zero for pharmacokinetic data analysis. […]
Sprague-Dawley rats at 10 mg/kg (in 100% DMSO). […]
c Bioavailability determined by dividing the individual dose normalized oral AUC last by the average dose normalized intravenous AUC last value. […]
The dosing solution was prepared as a cassette to contain all three test articles in the same solutions using a vehicle
consisting of 20% DMSO/10% (DMSO/Cremophor EL 1:1)/70% Milli-Q water.
Individual blood concentrations and pharmacokinetic parameters are shown in Table H through Table J. All data are
expressed as ng/mL of the free drug. Samples that were below the limit of quantification were not used in the
calculation of averages. Concentration versus time data are plotted in Fig D through Fig F.
Table H. Individual blood concentrations (ng/mL) and PK parameters for C16 after IV administration in male CD-1 mice at 1 mg/kg.
t (h) 0 (pre-dose) BLOQ BLOQ BLOQ
(1 picture or pasted object on this page, not shown here)

[1] = male, CD-1, mouse, whole blood, ip, 10 mg/kg, male CD-1 mouse, IP 10 mg/kg, average
[2] = male, CD-1, mouse, whole blood, ip, 10 mg/kg, mouse blood, IP 10 mg/kg, individual animals 4-6
[3] = male, CD-1, mouse, whole blood, iv, 1 mg/kg, male CD-1 mouse, IV 1 mg/kg, average
[4] = male, CD-1, mouse, whole blood, iv, 1 mg/kg, mouse blood, IV 1 mg/kg, individual animals 1-3
[5] = male, CD-1, mouse, whole blood, po, 10 mg/kg, male CD-1 mouse, PO 10 mg/kg, average
[6] = mouse blood, IP 10 mg/kg, individual animals 4-6, 10 mg/kg
[7] = mouse blood, IV 1 mg/kg, individual animals 1-3, 1 mg/kg
[8] = mouse blood, PO 10 mg/kg, individual animals 7-9, 10 mg/kg
[9] = whole blood, male CD-1 mouse, IP 10 mg/kg, average

COc1cc(C(=O)/C=C/c2ccc(F)cc2)cc(OC)c1OC [C16, 4-fluoro-3’,4’,5’-trimethoxychalcone]
time of maximum blood concentration (male CD-1 mouse, IP 10 mg/kg): 15 min
time of maximum blood concentration (male CD-1 mouse, PO 10 mg/kg): 15 min
AUC(0-inf) [1]: 114 ng·h/mL
AUC(0-t) [1]: 109 ng·h/mL
MRT last [1]: 48 min
half-life [1]: 48 min
AUC(0-inf) [2]: 101 ng·h/mL
AUC(0-t) [2]: 99.2 ng·h/mL
MRT last [2]: 59.5 min
half-life [2]: 38.2 min
Bioavailability (male, CD-1, mouse, whole blood, ip, 10 mg/kg, mouse blood, IP 10 mg/kg, individual animals 4-6, read-out: Bioavailability): 49.7%
cmax (male, CD-1, mouse, whole blood, ip, 10 mg/kg, mouse blood, IP 10 mg/kg, individual animals 4-6, read-out: cmax): 90.3 ng/mL
concentration at 0.25 h (male, CD-1, mouse, whole blood, ip, 10 mg/kg, mouse, IP 10 mg/kg, 0.25 h, animals 4-6, read-out: Individual blood concentration): 90.3 ng/mL
concentration at 0.5 h (male, CD-1, mouse, whole blood, ip, 10 mg/kg, mouse, IP 10 mg/kg, 0.50 h, animals 4-6, read-out: Individual blood concentration): 48.2 ng/mL
concentration at 1 h (male, CD-1, mouse, whole blood, ip, 10 mg/kg, mouse, IP 10 mg/kg, 1.0 h, animals 4-6, read-out: Individual blood concentration): 49.2 ng/mL
concentration at 2 h (male, CD-1, mouse, whole blood, ip, 10 mg/kg, mouse, IP 10 mg/kg, 2.0 h, animals 4-6, read-out: Individual blood concentration): 13.4 ng/mL
Bioavailability (male, CD-1, mouse, whole blood, ip, 10 mg/kg, whole blood, male CD-1 mouse, IP 10 mg/kg, average, read-out: Bioavailability): 54.7%
cmax (male, CD-1, mouse, whole blood, ip, 10 mg/kg, whole blood, male CD-1 mouse, IP 10 mg/kg, average, read-out: cmax): 107 ng/mL
AUC(0-inf) [3]: 22.4 ng·h/mL
AUC(0-t) [3]: 20 ng·h/mL
MRT last [3]: 26 min
clearance [3]: 750 mL/min/kg
half-life [3]: 44.8 min
C0 (male, CD-1, mouse, whole blood, iv, 1 mg/kg, male CD-1 mouse, IV 1 mg/kg, average, extrapolated to t = 0): 76 ng/mL
AUC(0-inf) [4]: 22.9 ng·h/mL
AUC(0-t) [4]: 20.2 ng·h/mL
MRT last [4]: 25.6 min
clearance [4]: 727 mL/min/kg
half-life [4]: 49.4 min
Vd [4]: 32.8 L/kg
concentration at 0.083 h (male, CD-1, mouse, whole blood, iv, 1 mg/kg, mouse, IV 1 mg/kg, 0.083 h, animals 1-3, read-out: Individual blood concentration): 46.4 ng/mL
concentration at 0.25 h (male, CD-1, mouse, whole blood, iv, 1 mg/kg, mouse, IV 1 mg/kg, 0.25 h, animals 1-3, read-out: Individual blood concentration): 17.3 ng/mL
concentration at 0.5 h (male, CD-1, mouse, whole blood, iv, 1 mg/kg, mouse, IV 1 mg/kg, 0.50 h, animals 1-3, read-out: Individual blood concentration): 8.4 ng/mL
concentration at 1 h (male, CD-1, mouse, whole blood, iv, 1 mg/kg, mouse, IV 1 mg/kg, 1.0 h, animals 1-3, read-out: Individual blood concentration): 4.5 ng/mL
concentration at 2 h (male, CD-1, mouse, whole blood, iv, 1 mg/kg, mouse, IV 1 mg/kg, 2.0 h, animals 1-3, read-out: Individual blood concentration): 2.28 ng/mL
Vd (male, CD-1, mouse, whole blood, iv, 1 mg/kg, whole blood, male CD-1 mouse, IV 1 mg/kg, average): 32.6 L/kg
AUC(0-t) [5]: 20.9 ng·h/mL
MRT last [5]: 82.8 min
half-life (male, CD-1, mouse, whole blood, po, 10 mg/kg, mouse blood, PO 10 mg/kg, individual animal 7): 176 min
AUC(0-t) (male, CD-1, mouse, whole blood, po, 10 mg/kg, mouse blood, PO 10 mg/kg, individual animals 7-9): 23.2 ng·h/mL
Bioavailability (male, CD-1, mouse, whole blood, po, 10 mg/kg, mouse blood, PO 10 mg/kg, individual animals 7-9, read-out: Bioavailability): 11.6%
Bioavailability (male, CD-1, mouse, whole blood, po, 10 mg/kg, whole blood, male CD-1 mouse, PO 10 mg/kg, average, read-out: Bioavailability): 10.5%
cmax (male, CD-1, mouse, whole blood, po, 10 mg/kg, whole blood, male CD-1 mouse, PO 10 mg/kg, average, read-out: cmax): 12.5 ng/mL
Tmax (male, mouse blood, IP 10 mg/kg, individual animals 4-6): 15 min
Tmax (male, mouse blood, IV 1 mg/kg, individual animals 1-3): 0 min
Tmax (male, mouse blood, PO 10 mg/kg, individual animals 7-9): 15 min
AUClast [6]: 127 ng·h/mL and 101 ng·h/mL
AUC∞ [6]: 134 ng·h/mL and 106 ng·h/mL
Bioavailability [6]: 63.7% and 50.6%
Dose-normalized AUClast [6]: 9.92 kg·ng·h/mL/mg and 12.7 kg·ng·h/mL/mg and 10.1 kg·ng·h/mL/mg
Dose-normalized AUC∞ [6]: 10.1 kg·ng·h/mL/mg and 13.4 kg·ng·h/mL/mg and 10.6 kg·ng·h/mL/mg
MRTlast [6]: 57 min and 55 min
cmax [6]: 106 ng/mL and 125 ng/mL
t1/2 [6]: 51.7 min and 54.1 min
AUClast [7]: 22.2 ng·h/mL and 17.5 ng·h/mL
AUC∞ [7]: 24.7 ng·h/mL and 19.6 ng·h/mL
CL [7]: 673 mL/min/kg and 850 mL/min/kg
MRTlast [7]: 23.9 min and 28.6 min
Vss [7]: 27.2 L/kg and 37.7 L/kg
c0 [7]: 75.8 ng/mL and 103 ng/mL and 49.1 ng/mL
t1/2 [7]: 46.8 min and 38.2 min
AUClast [8]: 15.1 ng·h/mL and 24.5 ng·h/mL
Bioavailability [8]: 7.56% and 12.3%
Dose-normalized AUClast [8]: 2.32 kg·ng·h/mL/mg and 1.51 kg·ng·h/mL/mg and 2.45 kg·ng·h/mL/mg
MRTlast [8]: 100 min and 103 min and 46 min
cmax [8]: 8.76 ng/mL and 17.8 ng/mL and 10.9 ng/mL
Adverse reactions (mouse, 1 mg/kg IV, 10 mg/kg IP or PO, cassette): No adverse reactions were observed
Individual blood concentration (mouse, IP 10 mg/kg, 0.083 h, animals 4-6, 10 mg/kg): 28.2 ng/mL and 68.6 ng/mL and 64.5 ng/mL
Individual blood concentration (mouse, IP 10 mg/kg, 0.25 h, animals 4-6, 10 mg/kg): 106 ng/mL and 125 ng/mL
Individual blood concentration (mouse, IP 10 mg/kg, 0.50 h, animals 4-6, 10 mg/kg): 94.4 ng/mL and 56.3 ng/mL
Individual blood concentration (mouse, IP 10 mg/kg, 1.0 h, animals 4-6, 10 mg/kg): 48.0 ng/mL and 32.1 ng/mL
Individual blood concentration (mouse, IP 10 mg/kg, 2.0 h, animals 4-6, 10 mg/kg): 13.3 ng/mL and 12.1 ng/mL
Individual blood concentration (mouse, IP 10 mg/kg, 4.0 h, animals 4-6, 10 mg/kg): 1.79 ng/mL and 5.29 ng/mL and 3.62 ng/mL
Individual blood concentration (mouse, IP 10 mg/kg, 8.0 h, animals 4-6): BLOQ (BLOQ: Below the limit of quantitation (1 ng/mL))
Individual blood concentration (mouse, IV 1 mg/kg, 0.083 h, animals 1-3, 1 mg/kg): 54.4 ng/mL and 33.4 ng/mL
Individual blood concentration (mouse, IV 1 mg/kg, 0.25 h, animals 1-3, 1 mg/kg): 15.2 ng/mL and 15.4 ng/mL
Individual blood concentration (mouse, IV 1 mg/kg, 0.50 h, animals 1-3, 1 mg/kg): 8.57 ng/mL and 10.9 ng/mL
Individual blood concentration (mouse, IV 1 mg/kg, 1.0 h, animals 1-3, 1 mg/kg): 4.93 ng/mL and 3.76 ng/mL
Individual blood concentration (mouse, IV 1 mg/kg, 2.0 h, animals 1-3, 1 mg/kg): 2.21 ng/mL and 2.30 ng/mL
Individual blood concentration (mouse, IV 1 mg/kg, 4.0 h, animals 1-3): BLOQ (BLOQ: Below the limit of quantitation (1 ng/mL))
Individual blood concentration (mouse, IV 1 mg/kg, 8.0 h, animals 1-3): BLOQ (BLOQ: Below the limit of quantitation (1 ng/mL))
Individual blood concentration (mouse, PO 10 mg/kg, 0.25 h, animals 7-9, 10 mg/kg): 8.76 ng/mL and 17.8 ng/mL and 10.9 ng/mL
Individual blood concentration (mouse, PO 10 mg/kg, 0.50 h, animals 7-9, 10 mg/kg): 7.95 ng/mL and 12.4 ng/mL and 5.89 ng/mL
Individual blood concentration (mouse, PO 10 mg/kg, 1.0 h, animals 7-9, 10 mg/kg): 7.01 ng/mL and 5.15 ng/mL and 3.45 ng/mL
Individual blood concentration (mouse, PO 10 mg/kg, 2.0 h, animals 7-9, 10 mg/kg): 6.19 ng/mL and 4.28 ng/mL and 10.5 ng/mL
Individual blood concentration (mouse, PO 10 mg/kg, 4.0 h, animals 7-9, 10 mg/kg): 3.44 ng/mL and BLOQ (BLOQ: Below the limit of quantitation (1 ng/mL)) and 1.26 ng/mL
Individual blood concentration (mouse, PO 10 mg/kg, 8.0 h, animals 7-9): BLOQ (BLOQ: Below the limit of quantitation (1 ng/mL))
Dose-normalized AUClast [9]: 10.9 kg·ng·h/mL/mg
Dose-normalized AUC∞ [9]: 11.4 kg·ng·h/mL/mg
Dose-normalized AUClast (whole blood, male CD-1 mouse, PO 10 mg/kg, average): 2.09 kg·ng·h/mL/mg
